From patent US5679828A (priority 1995, dated 1997)
Read-outs that look alike come from different tables or passages of the source.

Legend:
HIV-1 [1] = test: HIV-1 replication in acutely infected H9 lymphocytes (p24 antigen ELISA); assay type: cell-based, HIV-1 (IIIB isolate); set-up: TI50: unit not given beside the values
Procedure: The cell lines were used in experiments only when in the logarithmic phase of growth, whereas uninfected peripheral blood mononuclear cells (PBMCs) were first stimulated with PHA (1 μg/mL) for three days. […] The cell lines and PBMCs were washed thoroughly to remove unadsorbed virions and resuspended at 4×10^5 cells/ml in complete medium or complete medium with 10% v/v interleukin 2 (IL-2), respectively. One ml. aliquots were placed into wells of 24-well culture plates containing an equal volume of test compounds (diluted in the appropriate culture medium). The toxicity of each compound was assessed by determining the number of compound-exposed uninfected cells that remained after four days at 37° C. and 5% CO2. A p24 antigen ELISA assay was used to determine the level of virus released in the medium of the HIV-infected cultures. The p24 antigen assay used a HIV-1 anti-p24 specific monoclonal antibody as the capture antibody coated onto 96-well plates. […] P24 in the culture medium was quantitated against a standard curve containing known amounts of p24. The effective (EC50) and inhibitory (IC50) concentrations for anti-HIV activity and cytotoxicity, respectively, were determined.
^a Concentration which inhibits viral replication in H9 cells by 50%

[2] = target: T1, HIV-1 reverse transcriptase (Human immunodeficiency virus type 1 group M subtype B, UniProt P04585); test: HIV-1 reverse transcriptase assay; assay type: biochemical, HIV-1 IIIB
T1 construct: virion associated HIV-1 IIIB reverse transcriptase; endogenous in cells; host or cells: HIV-1 IIIB virions lysed in Triton X-100
Procedure: Ten microliters of virion associated HIV-1 IIIB reverse transcriptase in 1% Triton X-100 was mixed with 50 microliters of a reaction cocktail containing 50 mM Tri-HCl (pH 7.8), 75 mM KCl, 2 mM dithiothreitol, 5 mM MgCl2, 5 mg/ml poly (A) [Pharmacia], 0.25 unit/ml oligo(dT)[Pharmacia]; 0.05% Nonidet P40 and 10 mCi/ml ^32 P-dTTP in the presence of various concentrations of test compound. After incubating for one hour at 37° C., 40 microliters of the reaction mixture was applied to a Schleicher & Schuell NA 45 membrane saturated with […] (0.3M NaCl, 30 mM sodium citrate, pH 7.0) in a Schleicher & Schuell Minifold over one sheet of GB003 filter paper. Each well of the minifold was washed four times with 2×SSC. Autoradiography was performed, and radioactivity was quantified with a Packard Matrix (Meriden, Conn.) 9600 direct beta counter.

HIV-1 [3] = conditions: cited from earlier work
[4] = tested on: HIV induced membrane fusion; test: cells; assay type: cell-based, HIV-1LAI; conditions: for IC100: Human immunodeficiency virus 1, CEM-4, 24 h, read-out: Fusion Assay IC100
Procedure: (§1) MOLT-4 cells (7×10^4) were incubated with HIV-1LAI chronically infected CEM cells (10^4) in 96-well half-area flat-bottomed plates (Costar) in 100 microliters culture medium were incubated with the cell mixtures at 37° C. for 24 hours. Multinucleated syncytia were enumerated by microscopic examination of the entire contents of each well.

[5] = tested on: cells of the fusion assay; test: Cytotoxicity noted in the fusion assay; assay type: cell-based; conditions: Table 1 footnotes; one-day fusion assay
Procedure: as §1, with “Cell fusions were performed as described in Matthews et al., Proc. Natl. Acad. Sci. USA, 1987, 84, 5424-5428. MOLT-4” for “MOLT-4”
^d No noticeable cytotoxicity at 100 μg/mL
^e Toxic to the cells at 80 μg/mL in oneday fusion assay
^f Toxic at 40 μg/mL under the assay conditions

HIV-1 [6] = test: HIV-1 replication in PHA-stimulated PBMCs (p24 antigen ELISA); assay type: cell-based, HIV-1 (IIIB isolate); set-up: TI50: unit not given beside the values; conditions: for EC50: Human immunodeficiency virus 1, PBMC; for T.I. values in PBMCs compared with H9 cells: PBMCs versus H9 cells; for TI50: Table 2, PBMCs
Procedure: The T cell line, H9, and the promonocytic cell line, U937, were maintained separately in continuous culture with complete medium (RPMI 1640 with 10% fetal calf serum) at 5% CO2 and 37° C. The cell lines were used in experiments only when in the logarithmic phase of growth, whereas uninfected peripheral blood mononuclear cells (PBMCs) were first stimulated with PHA (1 μg/mL) for three days. All cell targets were incubated with HIV-1 (IIIB isolate, TCID50 10^4 IU/ml, at a multiplicity of infection of 0.01-0.01 IU/cell) for one hour at 37° C. and 5% CO2. The cell lines and PBMCs were washed thoroughly to remove unadsorbed virions and resuspended at 4×10^5 cells/ml in complete medium or complete medium with 10% v/v interleukin 2 (IL-2), respectively. One ml. aliquots were placed into wells of 24-well culture plates containing an equal volume of test compounds (diluted in the appropriate culture medium). The toxicity of each compound was assessed by determining the number of compound-exposed uninfected cells that remained after four days at 37° C. and 5% CO2. A p24 antigen ELISA assay was used to determine the level of virus released in the medium of the HIV-infected cultures. The p24 antigen assay used a HIV-1 anti-p24 specific monoclonal antibody as the capture antibody coated onto 96-well plates. Following a sample incubation period, rabbit serum containing antibodies for HIV-1 p24 was used to tag any p24 "captured: onto the microtiter well surface. Peroxidase conjugated goat anti-rabbit serum was then used to tag HIV-1 p24 specific rabbit antibodies that had complexed with captured p24. […] The cutoff for the p24 ELISA assay was 12.5 pg/ml. P24 in the culture medium was quantitated against a standard curve containing known amounts of p24. The effective (EC50) and inhibitory (IC50) concentrations for anti-HIV activity and cytotoxicity, respectively, were determined.

[7] = Human immunodeficiency virus 1, H9, Table 1, inhibits viral replication in H9 cells by 50%, read-out: EC50
[8] = Table 1, inhibit 50% of HIV-1 RT activity, read-out: HIV-RT Assay IC50
[9] = earlier data, HIV-1 replication in H9 lymphocyte cells
[10] = Human immunodeficiency virus 1, Lymphocyte, acutely infected H9 lymphocytes
[11] = Table 1, H9 cells, therapeutic index
[12] = acutely infected H9 lymphocytes
[13] = Human immunodeficiency virus 1, Lymphocyte, Table 2, H9
[14] = earlier data, H9 lymphocyte cells
[15] = PHA-stimulated PBMCs, read-out: EC50

Structure (SMILES)	EC50 (HIV-1 [1]; [7]) [nM]	IC50 [2, 8] [nM]	IC100 [4] [µg/mL]	cytotoxicity in fusion assay (footnotes d, e, f) [5]	T.I. (HIV-1 [1]; [11])	further results
C=C(C)[C@@H]1CC[C@]2(C(=O)O)CC[C@]3(C)[C@H](CC[C@@H]4[C@@]5(C)CC[C@H](O)C(C)(C)[C@@H]5CC[C@]43C)[C@@H]12 [Compound 1, betulinic acid, reference compound]	1400	> 219000	> 100	–	–	EC50 (HIV-1 [3]; [9]): 1400 nM
C=C(C)[C@@H]1CC[C@]2(C(=O)O)CC[C@]3(C)[C@H](CC[C@@H]4[C@@]5(C)CC[C@H](OC(=O)C(C)(C)CC(=O)O)C(C)(C)[C@@H]5CC[C@]43C)[C@@H]12 [Compound 2, 3-O-(2',2'-dimethylsuccinyl)betulinic acid]	2700	> 171000	20	d (No noticeable cytotoxicity at 100 μg/mL)	5.9	EC50 (HIV-1 [1]; [10]): 2700 nM; T.I. (HIV-1 [1]; [12]): 5.9; inhibition of syncytia formation, compounds 2 and 3 compared ([4]; compound 3 versus compound 2): inhibited syncytia formation at the same concentration
C=C(C)[C@@H]1CC[C@]2(C(=O)O)CC[C@]3(C)[C@H](CC[C@@H]4[C@@]5(C)CC[C@H](OC(=O)CC(C)(C)C(=O)O)C(C)(C)[C@@H]5CC[C@]43C)[C@@H]12 [Compound 3, 3-O-(3',3'-dimethylsuccinyl)-betulinic acid]	–	–	–	d (No noticeable cytotoxicity at 100 μg/mL)	–	EC50 (HIV-1 [1]; Human immunodeficiency virus 1, Lymphocyte): < 0.017 nM
C=C(C)[C@@H]1CC[C@]2(C(=O)O)CC[C@]3(C)[C@H](CC[C@@H]4[C@@]5(C)CC[C@H](OC(=O)CC(C)(C)CC(=O)O)C(C)(C)[C@@H]5CC[C@]43C)[C@@H]12 [Compound 4, 3-O-(3',3'-dimethylglutaryl)-betulinic acid]	–	> 167000	30	d (No noticeable cytotoxicity at 100 μg/mL)	–	–
C=C(C)[C@@H]1CC[C@]2(C(=O)O)CC[C@]3(C)[C@H](CC[C@@H]4[C@@]5(C)CC[C@H](OC(=O)COCC(=O)O)C(C)(C)[C@@H]5CC[C@]43C)[C@@H]12 [Compound 5, 3-O-diglycolyl-betulinic acid]	10	> 175000	40	e (Toxic to the cells at 80 μg/mL in oneday fusion assay)	1,172.0	EC50 (HIV-1 [1]; [13]): 10 ng/mL; TI50 (HIV-1 [1]; Table 2, H9): 1,500
CC(C)[C@@H]1CC[C@]2(C(=O)O)CC[C@]3(C)[C@H](CC[C@@H]4[C@@]5(C)CC[C@H](O)C(C)(C)[C@@H]5CC[C@]43C)[C@@H]12 [Compound 6, dihydrobetulinic acid, reference compound]	900	–	> 100	–	14.0	IC50 [2]: > 218000 nM; T.I. (HIV-1 [3]; [14]): 14; EC50 (HIV-1 [3]; earlier data, anti-HIV activity, unit inferred): 900 nM
CC(C)[C@@H]1CC[C@]2(C(=O)O)CC[C@]3(C)[C@H](CC[C@@H]4[C@@]5(C)CC[C@H](OC(=O)C(C)(C)CC(=O)O)C(C)(C)[C@@H]5CC[C@]43C)[C@@H]12 [Compound 7, 3-O-(2',2'-dimethylsuccinyl)-dihydrobetulinic acid]	560	–	–	–	13.8	EC50 (HIV-1 [1]; [10]): 560 nM; T.I. (HIV-1 [1]; [12]): 13.8
CC(C)[C@@H]1CC[C@]2(C(=O)O)CC[C@]3(C)[C@H](CC[C@@H]4[C@@]5(C)CC[C@H](OC(=O)CC(C)(C)C(=O)O)C(C)(C)[C@@H]5CC[C@]43C)[C@@H]12 [Compound 8, 3-O-(3',3'-dimethylsuccinyl)-dihydrobetulinic acid]	–	> 170000	20	f (Toxic at 40 μg/mL under the assay conditions)	14,000-98,000	EC50 (HIV-1 [6]): 1.75 ng/mL; EC50 (HIV-1 [6]; [15]): 2.99 nM; T.I. values in PBMCs compared with H9 cells (HIV-1 [6]): lower than those in H9 cells; TI50 (HIV-1 [6]): 2,286; EC50 (HIV-1 [1]; [10]): < 0.017 nM; T.I. (HIV-1 [1]; [12]): more than 400,000
CC(C)[C@@H]1CC[C@]2(C(=O)O)CC[C@]3(C)[C@H](CC[C@@H]4[C@@]5(C)CC[C@H](OC(=O)CC(C)(C)CC(=O)O)C(C)(C)[C@@H]5CC[C@]43C)[C@@H]12 [Compound 9, 3-O-(3',3'-dimethylglutaryl)-dihydrobetulinic acid]	5.7	> 166000	20	f (Toxic at 40 μg/mL under the assay conditions)	1,017.0	EC50 (HIV-1 [6]): 17.5 ng/mL; EC50 (HIV-1 [6]; [15]): 29.2 nM; T.I. values in PBMCs compared with H9 cells (HIV-1 [6]): lower than those in H9 cells; TI50 (HIV-1 [6]): 229
CC(C)[C@@H]1CC[C@]2(C(=O)O)CC[C@]3(C)[C@H](CC[C@@H]4[C@@]5(C)CC[C@H](OC(=O)COCC(=O)O)C(C)(C)[C@@H]5CC[C@]43C)[C@@H]12 [Compound 10, 3-O-diglycolyl-dihydrobetulinic acid]	5.6	> 174000	40	e (Toxic to the cells at 80 μg/mL in oneday fusion assay)	2,344.0	EC50 (HIV-1 [1]; [13]): 3.2 ng/mL; TI50 (HIV-1 [1]; Table 2, H9): 2,344
CC1(C)Oc2ccc3ccc(=O)oc3c2[C@@H](OC(=O)[C@@]23CC[C@@](C)(C(=O)O2)C3(C)C)[C@H]1OC(=O)[C@@]12CC[C@@](C)(C(=O)O1)C2(C)C [DCK, 3',4'-di-O-(-)-camphanoyl-(+)-cis-khellactone]	–	–	–	–	–	therapeutic index (T.I.) (HIV-1 [3]; H9 lymphocyte cells, background): 136,719; EC50 (HIV-1 [3]; HIV replication in H9 lymphocyte cells, background): 0.4 nM
CC(=O)[C@@H]1CC[C@]2(C(=O)O)CC[C@]3(C)[C@H](CC[C@@H]4[C@@]5(C)CC[C@H](O)C(C)(C)[C@@H]5CC[C@]43C)[C@@H]12 [platanic acid]	–	–	–	–	–	T.I. (HIV-1 [3]; [14]): 14; EC50 (HIV-1 [3]; [9]): 6500 nM
